Reference: ChEMBL document CHEMBL3046161, “Synthesis of potential antitubercular and antimicrobial s-triazine-based scaffolds via Suzuki cross-coupling reaction” (2013)
≈ marks a conversion by molar mass, not a printed value.

Key:
Format in all cases: functional
[1] = tested on: Mycobacterium tuberculosis; assay: Antimycobacterial activity against Mycobacterium tuberculosis H37Rv assessed as growth inhibition measured within 10 days by BACTEC MGIT method; conditions: 240 h
Aspergillus fumigatus [2] = assay: Antifungal activity against Aspergillus fumigatus MTCC 343 assessed as growth inhibition after 48 hr by agar streak dilution method; conditions: MTCC 343, 48 h
Candida albicans [3] = assay: Antifungal activity against Candida albicans MTCC 183 assessed as growth inhibition after 48 hr by agar streak dilution method; conditions: MTCC 183, 48 h
Escherichia coli [4] = assay: Antibacterial activity against Escherichia coli MTCC 739 assessed as growth inhibition at 3.12 to 50 ug/mL after 24 hr by agar disk diffusion method
Aspergillus niger [5] = assay: Antifungal activity against Aspergillus niger MTCC 282 assessed as growth inhibition after 48 hr by agar streak dilution method; conditions: MTCC 282, 48 h
Candida albicans [6] = assay: Antifungal activity against Candida albicans MTCC 183 assessed as growth inhibition at 3.12 to 50 ug/mL after 24 hr by agar disk diffusion method
Proteus vulgaris [7] = assay: Antibacterial activity against Proteus vulgaris MTCC 1771 assessed as growth inhibition at 3.12 to 50 ug/mL after 24 hr by agar disk diffusion method
Staphylococcus aureus [8] = assay: Antibacterial activity against Staphylococcus aureus MTCC 96 assessed as growth inhibition after 24 hr by agar streak dilution method; conditions: MTCC 96, 24 h
Klebsiella pneumoniae [9] = assay: Antibacterial activity against Klebsiella pneumoniae MTCC 109 assessed as growth inhibition after 24 hr by agar streak dilution method; conditions: MTCC 109, 24 h
Aspergillus clavatus [10] = assay: Antifungal activity against Aspergillus clavatus MTCC 1323 assessed as growth inhibition at 3.12 to 50 ug/mL after 24 hr by agar disk diffusion method
Salmonella typhi [11] = assay: Antibacterial activity against Salmonella enterica subsp. enterica serovar Typhi MTCC 733 assessed as growth inhibition after 24 hr by agar streak dilution method; conditions: MTCC 733, 24 h
Aspergillus clavatus [12] = assay: Antifungal activity against Aspergillus clavatus MTCC 1323 assessed as growth inhibition after 48 hr by agar streak dilution method; conditions: MTCC 1323, 48 h
Pseudomonas aeruginosa [13] = assay: Antibacterial activity against Pseudomonas aeruginosa MTCC 741 assessed as growth inhibition after 24 hr by agar streak dilution method; conditions: MTCC 741, 24 h
Proteus vulgaris [14] = assay: Antibacterial activity against Proteus vulgaris MTCC 1771 assessed as growth inhibition after 24 hr by agar streak dilution method; conditions: MTCC 1771, 24 h
Aspergillus fumigatus [15] = assay: Antifungal activity against Aspergillus fumigatus MTCC 343 assessed as growth inhibition at 3.12 to 50 ug/mL after 24 hr by agar disk diffusion method
Bacillus cereus [16] = assay: Antibacterial activity against Bacillus cereus MTCC 430 assessed as growth inhibition at 3.12 to 50 ug/mL after 24 hr by agar disk diffusion method
Bacillus cereus [17] = assay: Antibacterial activity against Bacillus cereus MTCC 430 assessed as growth inhibition after 24 hr by agar streak dilution method; conditions: MTCC 430, 24 h
Salmonella typhi [18] = assay: Antibacterial activity against Salmonella enterica subsp. enterica serovar Typhi MTCC 733 assessed as growth inhibition at 3.12 to 50 ug/mL after 24 hr by agar disk diffusion method
Klebsiella pneumoniae [19] = assay: Antibacterial activity against Klebsiella pneumoniae MTCC 109 assessed as growth inhibition at 3.12 to 50 ug/mL after 24 hr by agar disk diffusion method
Pseudomonas aeruginosa [20] = assay: Antibacterial activity against Pseudomonas aeruginosa MTCC 741 assessed as growth inhibition at 3.12 to 50 ug/mL after 24 hr by agar disk diffusion method
Staphylococcus aureus [21] = assay: Antibacterial activity against Staphylococcus aureus MTCC 96 assessed as growth inhibition at 3.12 to 50 ug/mL after 24 hr by agar disk diffusion method
[22] = tested on: Mycobacterium tuberculosis; assay: Antimycobacterial activity against Mycobacterium tuberculosis H37Rv assessed as growth inhibition at MIC after 12 to 28 days by Lowenstein and Jensen agar dilution method
Escherichia coli [23] = assay: Antibacterial activity against Escherichia coli MTCC 739 assessed as growth inhibition after 24 hr by agar streak dilution method; conditions: MTCC 739, 24 h
Aspergillus niger [24] = assay: Antifungal activity against Aspergillus niger MTCC 282 assessed as growth inhibition at 3.12 to 50 ug/mL after 24 hr by agar disk diffusion method
[25] = tested on: Mycobacterium tuberculosis; assay: Antimycobacterial activity against Mycobacterium tuberculosis H37Rv assessed as growth inhibition after 12 to 28 days by Lowenstein and Jensen agar dilution method
Shigella flexneri [26] = assay: Antibacterial activity against Shigella flexneri MTCC 1457 assessed as growth inhibition at 3.12 to 50 ug/mL after 24 hr by agar disk diffusion method
Shigella flexneri [27] = assay: Antibacterial activity against Shigella flexneri MTCC 1457 assessed as growth inhibition after 24 hr by agar streak dilution method; conditions: MTCC 1457, 24 h

| SMILES | MIC [1] | MIC (Aspergillus fumigatus [2]) | MIC (Candida albicans [3]) | inhibition zone (IZ) (Escherichia coli [4]) | MIC (Aspergillus niger [5]) | inhibition zone (IZ) (Candida albicans [6]) | inhibition zone (IZ) (Proteus vulgaris [7]) | MIC (Staphylococcus aureus [8]) | MIC (Klebsiella pneumoniae [9]) | inhibition zone (IZ) (Aspergillus clavatus [10]) | MIC (Salmonella typhi [11]) | MIC (Aspergillus clavatus [12]) | MIC (Pseudomonas aeruginosa [13]) | MIC (Proteus vulgaris [14]) | inhibition zone (IZ) (Aspergillus fumigatus [15]) | inhibition zone (IZ) (Bacillus cereus [16]) | MIC (Bacillus cereus [17]) | inhibition zone (IZ) (Salmonella typhi [18]) | inhibition zone (IZ) (Klebsiella pneumoniae [19]) | inhibition zone (IZ) (Pseudomonas aeruginosa [20]) | further results |
| --- | --- | --- | --- | --- | --- | --- | --- | --- | --- | --- | --- | --- | --- | --- | --- | --- | --- | --- | --- | --- | --- |
| CC1CC(C)CN(c2nc(-c3ccc(NCC(=O)Nc4ccc(I)cc4)cc3)nc(N3CC(C)CC(C)C3)n2)C1 (stereo not drawn) | > 6.25 µg/mL | 50 µg/mL (≈ 76.5 µM) | > 50 µg/mL | <10 mm | 50 µg/mL (≈ 76.5 µM) | <10 mm | 23 mm | 50 µg/mL (≈ 76.5 µM) | 50 µg/mL (≈ 76.5 µM) | <10 mm | 50 µg/mL (≈ 76.5 µM) | > 50 µg/mL | 25 µg/mL (≈ 38.2 µM) | 25 µg/mL (≈ 38.2 µM) | 16 mm | 16 mm | 50 µg/mL (≈ 76.5 µM) | 17 mm | 23 mm | 24 mm | inhibition zone (IZ) (Staphylococcus aureus [21]): 17 mm; growth inhibition (GI) [22]: 95%; MIC (Escherichia coli [23]): 50 µg/mL (≈ 76.5 µM); inhibition zone (IZ) (Aspergillus niger [24]): <10 mm; MIC [25]: 250 µg/mL (≈ 382 µM); inhibition zone (IZ) (Shigella flexneri [26]): 20 mm; MIC (Shigella flexneri [27]): 50 µg/mL (≈ 76.5 µM) |
| CC1CC(C)CN(c2nc(-c3ccc(NCC(=O)Nc4ccc([N+](=O)[O-])cc4)cc3)nc(N3CC(C)CC(C)C3)n2)C1 (stereo not drawn) | > 6.25 µg/mL | 50 µg/mL (≈ 87.3 µM) | 50 µg/mL (≈ 87.3 µM) | 13 mm | 50 µg/mL (≈ 87.3 µM) | 13 mm | 13 mm | 12.5 µg/mL (≈ 21.8 µM) | 50 µg/mL (≈ 87.3 µM) | 24 mm | 50 µg/mL (≈ 87.3 µM) | 50 µg/mL (≈ 87.3 µM) | 50 µg/mL (≈ 87.3 µM) | 50 µg/mL (≈ 87.3 µM) | 18 mm | 16 mm | 50 µg/mL (≈ 87.3 µM) | 15 mm | 12 mm | 20 mm | inhibition zone (IZ) (Staphylococcus aureus [21]): 20 mm; growth inhibition (GI) [22]: 94%; MIC (Escherichia coli [23]): 50 µg/mL (≈ 87.3 µM); inhibition zone (IZ) (Aspergillus niger [24]): 18 mm; MIC [25]: 100 µg/mL (≈ 175 µM); inhibition zone (IZ) (Shigella flexneri [26]): 17 mm; MIC (Shigella flexneri [27]): 50 µg/mL (≈ 87.3 µM) |
| CC1CC(C)CN(c2nc(-c3ccc(NCC(=O)Nc4ccc(C#N)cc4)cc3)nc(N3CC(C)CC(C)C3)n2)C1 (stereo not drawn) | > 6.25 µg/mL | 50 µg/mL (≈ 90.5 µM) | > 50 µg/mL | 20 mm | 50 µg/mL (≈ 90.5 µM) | <10 mm | 19 mm | 12.5 µg/mL (≈ 22.6 µM) | 12.5 µg/mL (≈ 22.6 µM) | <10 mm | 50 µg/mL (≈ 90.5 µM) | > 50 µg/mL | 50 µg/mL (≈ 90.5 µM) | 50 µg/mL (≈ 90.5 µM) | 11 mm | 19 mm | 50 µg/mL (≈ 90.5 µM) | 20 mm | 28 mm | 21 mm | inhibition zone (IZ) (Staphylococcus aureus [21]): 19 mm; growth inhibition (GI) [22]: 96%; MIC (Escherichia coli [23]): 25 µg/mL (≈ 45.2 µM); inhibition zone (IZ) (Aspergillus niger [24]): <10 mm; MIC [25]: 62.5 µg/mL (≈ 113 µM); inhibition zone (IZ) (Shigella flexneri [26]): 15 mm; MIC (Shigella flexneri [27]): 50 µg/mL (≈ 90.5 µM) |
| Cc1ccc(NC(=O)CNc2ccc(-c3nc(N4CC(C)CC(C)C4)nc(N4CC(C)CC(C)C4)n3)cc2)cc1 (stereo not drawn) | > 6.25 µg/mL | > 50 µg/mL | 50 µg/mL (≈ 92.3 µM) | 13 mm | 50 µg/mL (≈ 92.3 µM) | 11 mm | 16 mm | 50 µg/mL (≈ 92.3 µM) | 50 µg/mL (≈ 92.3 µM) | <10 mm | 50 µg/mL (≈ 92.3 µM) | > 50 µg/mL | 50 µg/mL (≈ 92.3 µM) | 50 µg/mL (≈ 92.3 µM) | <10 mm | 14 mm | 50 µg/mL (≈ 92.3 µM) | 18 mm | <10 mm | 17 mm | inhibition zone (IZ) (Staphylococcus aureus [21]): <10 mm; growth inhibition (GI) [22]: 95%; MIC (Escherichia coli [23]): 50 µg/mL (≈ 92.3 µM); inhibition zone (IZ) (Aspergillus niger [24]): <10 mm; MIC [25]: 250 µg/mL (≈ 461 µM); inhibition zone (IZ) (Shigella flexneri [26]): 11 mm; MIC (Shigella flexneri [27]): 50 µg/mL (≈ 92.3 µM) |
